Test results taken from US12139520B2 (priority 2020, dated 2024).
Bridge positions count the residues as written; N and C are the ends. Square brackets hold non-standard residues; d marks the D form. Peptide text beside a SMILES is read from it. Hyp = O=C(O)[C@@H]1C[C@@H](O)CN1

Key:
[1] = target: hAM1 receptor (Homo sapiens, UniProt O60895+Q16602); test: cAMP assay for in vitro receptor activation, hAM1-R; format: cell-based; conditions: cAMP assay, hAM1 receptor; read-out: hAM1R EC50
Method in brief: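 A subcloned monoclonal line stably expressing hAM1 receptor is thawed and plated at 8000 cells/well. The assay buffer is DPBS with 0.05% casein and 0.5 mM IBMX, and receptor activation is followed by cAMP levels.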

[2] = Physical stability of peptide analogues (Thioflavin T fibrillation); format: physicochemical; conditions: maximum ThT signal normalized between hAMY maximum and buffer background; 40° C., shaking, four days; pH 7 per table title
Method in brief: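 Maximum ThT emission at 480 nm, after LOESS smoothing, is given as percent of the span from buffer background to hAMY. Conditions: 50 mM buffer at pH 4 or 7, 4 μM dye, 40 °C, repeated shaking, readings every 10 min for four days.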

Chain of hAM1 receptor (Q16602 23-461): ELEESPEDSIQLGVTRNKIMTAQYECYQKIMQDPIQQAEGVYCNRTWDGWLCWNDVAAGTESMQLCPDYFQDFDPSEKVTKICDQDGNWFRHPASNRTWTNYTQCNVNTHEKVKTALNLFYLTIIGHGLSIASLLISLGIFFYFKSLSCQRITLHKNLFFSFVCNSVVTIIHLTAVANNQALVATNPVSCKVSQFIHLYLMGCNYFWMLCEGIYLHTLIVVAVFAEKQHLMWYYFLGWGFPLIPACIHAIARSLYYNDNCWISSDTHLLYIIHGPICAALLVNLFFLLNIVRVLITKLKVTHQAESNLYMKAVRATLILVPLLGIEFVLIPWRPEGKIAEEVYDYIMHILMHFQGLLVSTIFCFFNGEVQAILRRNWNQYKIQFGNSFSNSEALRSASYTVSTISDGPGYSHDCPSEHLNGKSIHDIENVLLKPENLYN
Chain of hAM1 receptor (O60895 43-175 partner): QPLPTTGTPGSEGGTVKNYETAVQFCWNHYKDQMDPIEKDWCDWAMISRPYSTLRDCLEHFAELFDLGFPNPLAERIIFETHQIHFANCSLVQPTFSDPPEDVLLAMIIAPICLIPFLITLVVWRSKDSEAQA

EC50 [1] [µM]	Max ThT signal (%) [2] [%]	SMILES
> 5	1.250	CC[C@H](C)[C@H](NC(=O)[C@H](CC(N)=O)NC(=O)[C@@H](NC(=O)[C@H](CCCNC(=N)N)NC(=O)[C@@H]1CCCN1C(=O)[C@H](C)NC(=O)[C@@H](NC(=O)[C@H](CC(N)=O)NC(=O)[C@H](CC(=O)O)NC(=O)[C@H](CCCCN)NC(=O)[C@H](CC(=O)O)NC(=O)[C@H](CCCCN)NC(=O)[C@H](CC(=O)O)NC(=O)[C@@H](NC(=O)[C@H](Cc1ccccc1)NC(=O)[C@H](CCC(N)=O)NC(=O)[C@H](Cc1ccc(O)cc1)NC(=O)[C@@H](NC(=O)[C@H](CCC(N)=O)NC(=O)[C@H](Cc1c[nH]cn1)NC(=O)[C@H](C)NC(=O)[C@H](CC(C)C)NC(=O)[C@H](Cc1c[nH]c2ccccc12)NC(=O)[C@H](CCC(N)=O)NC(=O)[C@@H](NC(=O)[C@@H](NC(=O)[C@@H]1CSSC[C@H](NC(=O)CN)C(=O)N[C@@H](CCCNC(=N)N)C(=O)N[C@@H]([C@@H](C)O)C(=O)NCC(=O)N[C@@H]([C@@H](C)O)C(=O)N1)[C@@H](C)O)C(C)C)[C@@H](C)CC)[C@@H](C)O)C(C)C)[C@@H](C)O)C(=O)NCC(=O)N1CCC[C@H]1C(=O)N[C@@H](CCC(N)=O)C(=O)NCC(=O)N[C@@H](Cc1ccc(O)cc1)C(N)=O [compound 356] (H-GCRTGTCTVQWLAHQIYQFTDKDKDNVAPRTNIGPQGY-NH2; disulfide 2-7)
> 5	1.400	CC(C)C[C@H](NC(=O)[C@H](CCCNC(=N)N)NC(=O)[C@H](CCC(N)=O)NC(=O)[C@@H](NC(=O)[C@@H](NC(=O)[C@@H]1CSSC[C@H](NC(=O)[C@@H](N)CCCCN)C(=O)N[C@@H](CC(N)=O)C(=O)N[C@@H]([C@@H](C)O)C(=O)N[C@@H](C)C(=O)N[C@@H]([C@@H](C)O)C(=O)N1)[C@@H](C)O)C(C)C)C(=O)N[C@@H](C)C(=O)N[C@@H](Cc1c[nH]cn1)C(=O)N[C@@H](CCC(N)=O)C(=O)N[C@@H](C)C(=O)N[C@@H](Cc1ccc(O)cc1)C(=O)N[C@@H](CCC(N)=O)C(=O)N[C@@H](Cc1ccccc1)C(=O)N[C@H](C(=O)N[C@@H](CC(=O)O)C(=O)N[C@@H](CCCCN)C(=O)N[C@@H](CC(=O)O)C(=O)N[C@@H](CCCCN)C(=O)N[C@@H](CC(=O)O)C(=O)N[C@@H](CC(N)=O)C(=O)N[C@H](C(=O)N[C@@H](C)C(=O)N1CCC[C@H]1C(=O)N1CCC[C@H]1C(=O)N[C@H](C(=O)N[C@@H](CC(N)=O)C(=O)N[C@H](C(=O)NCC(=O)N[C@@H](CO)C(=O)N[C@@H](CC(N)=O)C(=O)NCC(=O)N1C[C@H](O)C[C@H]1C(N)=O)C(C)C)[C@@H](C)O)C(C)C)[C@@H](C)O [compound 210] (H-KCNTATCTVQRLAHQAYQFTDKDKDNVAPPTNVGSNG[Hyp]-NH2; disulfide 2-7)
> 5	1.200	CC[C@H](C)[C@H](NC(=O)[C@H](CCC(N)=O)NC(=O)[C@H](Cc1c[nH]cn1)NC(=O)[C@H](C)NC(=O)[C@H](CC(C)C)NC(=O)[C@H](CCCNC(=N)N)NC(=O)[C@H](CCC(N)=O)NC(=O)[C@@H](NC(=O)[C@@H](NC(=O)[C@@H]1CSSC[C@H](NC(=O)CN)C(=O)N[C@@H](CCCNC(=N)N)C(=O)N[C@@H]([C@@H](C)O)C(=O)NCC(=O)N[C@@H]([C@@H](C)O)C(=O)N1)[C@@H](C)O)C(C)C)C(=O)N[C@@H](Cc1ccc(O)cc1)C(=O)N[C@@H](CCC(N)=O)C(=O)N[C@@H](Cc1ccccc1)C(=O)N[C@H](C(=O)N[C@@H](CC(N)=O)C(=O)N[C@@H](CCCCN)C(=O)N[C@@H](CC(=O)O)C(=O)N[C@@H](CCCCN)C(=O)N[C@@H](CC(=O)O)C(=O)N[C@@H](CC(N)=O)C(=O)N[C@H](C(=O)N[C@@H](C)C(=O)N1CCC[C@H]1C(=O)N[C@@H](CCCNC(=N)N)C(=O)N[C@@H](CO)C(=O)N[C@@H](CCCCN)C(=O)N[C@H](C(=O)N[C@@H](CO)C(=O)N1CCC[C@H]1C(=O)N[C@@H](CCC(N)=O)C(=O)N[C@@H](CCC(N)=O)C(=O)N1C[C@H](O)C[C@H]1C(N)=O)[C@@H](C)CC)C(C)C)[C@@H](C)O [compound 232] (H-GCRTGTCTVQRLAHQIYQFTNKDKDNVAPRSKISPQQ[Hyp]-NH2; disulfide 2-7; N-terminus assumed)
